Assay results reported in the supplement of paper PMC10307832.

Experiments:
Assay in all cases: relative viability (nuclei count vs DMSO), 5 days (fraction); higher = more cells survive
Kobe2602 + Foretinib = compound: C1=CC(=CC=C1NC(=S)NNC2=C(C=C(C=C2[N+](=O)[O-])C(F)(F)F)[N+](=O)[O-])F [Kobe2602] + COc1cc2c(Oc3ccc(NC(=O)C4(C(=O)Nc5ccc(F)cc5)CC4)cc3F)ccnc2cc1OCCCN1CCOCC1 [Foretinib] (partner 0.25 µM)
Outline: (§1)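 Dosing by pin tool came one day after lung cancer cell lines were seeded in 1536-well plates, using either one drug or a fixed anchor-drug dose plus five library-drug doses (not always all listed) in √10 steps. After 5 days, nuclei were counted on 4× images. Relative viability is treated-well nuclei count divided by vehicle-well nuclei count, and values are medians of duplicate plates.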

Zosuquidar + AZD7762 = compound: O[C@@H](COc1cccc2ncccc12)CN1CCN([C@@H]2c3ccccc3[C@@H]3[C@H](c4ccccc42)C3(F)F)CC1 [Zosuquidar] + NC(=O)Nc1cc(-c2cccc(F)c2)sc1C(=O)N[C@H]1CCCNC1 [AZD7762] (partner 0.2 µM)
Outline: as §1

Cabozantinib + Foretinib = compound: COc1cc2nccc(Oc3ccc(NC(=O)C4(C(=O)Nc5ccc(F)cc5)CC4)cc3)c2cc1OC [Cabozantinib] + COc1cc2c(Oc3ccc(NC(=O)C4(C(=O)Nc5ccc(F)cc5)CC4)cc3F)ccnc2cc1OCCCN1CCOCC1 [Foretinib] (partner 0.25 µM)
Outline: as §1

[1] = compound: COc1cc2nccc(Oc3ccc(NC(=O)C4(C(=O)Nc5ccc(F)cc5)CC4)cc3)c2cc1OC [Cabozantinib] + CCNC(=O)c1noc(-c2cc(C(C)C)c(O)cc2O)c1-c1ccc(CN2CCOCC2)cc1 [Luminespib] (partner 0.01 µM)
Outline: as §1

Row | Cell Line | relative viability (Kobe2602 + Foretinib; first compound 0.2 µM) | relative viability (Kobe2602 + Foretinib; first compound 0.6325 µM) | relative viability (Kobe2602 + Foretinib; first compound 2 µM) | relative viability (Kobe2602 + Foretinib; first compound 6.325 µM) | relative viability (Kobe2602 + Foretinib; first compound 20 µM) | relative viability (Zosuquidar + AZD7762; first compound 0.01 µM) | relative viability (Zosuquidar + AZD7762; first compound 0.03162 µM) | relative viability (Zosuquidar + AZD7762; first compound 0.3162 µM) | relative viability (Zosuquidar + AZD7762; first compound 1 µM) | relative viability (Cabozantinib + Foretinib; first compound 0.02 µM) | relative viability (Cabozantinib + Foretinib; first compound 0.06325 µM) | relative viability (Cabozantinib + Foretinib; first compound 0.2 µM) | relative viability (Cabozantinib + Foretinib; first compound 0.6325 µM) | relative viability (Cabozantinib + Foretinib; first compound 2 µM) | relative viability ([1]; first compound 0.02 µM) | relative viability ([1]; first compound 0.06325 µM) | relative viability ([1]; first compound 0.2 µM) | relative viability ([1]; first compound 0.6325 µM) | relative viability ([1]; first compound 2 µM) | relative viability (Zosuquidar + AZD7762; first compound 0.1 µM)
1 | LCLC-97TM1 | 0.834 | 0.928 | 1.01 | 0.956 | 0.924 | 0.214 | 0.345 | 0.25 | 0.2 | 0.938 | 1.1 | 0.993 | 1.04 | 0.879 | 0.784 | 0.817 | 0.875 | 0.805 | 0.638 | –
2 | LU99A | 0.803 | 0.874 | 0.806 | 0.822 | 0.769 | 0.257 | 0.413 | 0.418 | 0.375 | 0.805 | 0.922 | 0.906 | 0.784 | 0.838 | 0.283 | 0.268 | 0.238 | 0.196 | 0.261 | 0.355
3 | NCI-H1299 | 1.06 | 1.09 | 1.05 | 1.13 | 1.03 | – | – | – | – | 1.12 | 1.12 | 1.16 | 1.11 | 1.13 | – | – | – | – | – | –
4 | NCI-H1355 | 0.953 | 0.945 | 0.921 | 0.933 | 0.95 | 0.777 | 0.778 | 0.797 | 0.86 | 1.08 | 1.1 | 1.03 | 1.08 | 0.949 | 0.806 | 0.852 | 0.682 | 0.738 | 0.871 | 0.733
5 | HARA | 0.996 | 0.795 | 0.893 | 0.856 | 0.892 | 0.429 | 0.343 | 0.344 | 0.322 | 1.04 | 1.02 | 0.711 | 0.949 | 0.691 | 0.722 | 0.421 | 0.615 | 0.92 | 0.548 | 0.304
6 | LXF-289 | 0.959 | 0.943 | 0.984 | 0.941 | 1.01 | 1.13 | 1.18 | 1.12 | 1.14 | 0.974 | 1 | 0.934 | 1.02 | 0.993 | 0.683 | 0.764 | 0.689 | 0.715 | 0.662 | 1.07
7 | 201T | 1.16 | 1.17 | 1.04 | 0.946 | 0.93 | 0.592 | 0.623 | 0.685 | 0.731 | – | 1.21 | 1.05 | 1.05 | 1.14 | 1.12 | 1.08 | 1.04 | 1.06 | 1.03 | 0.67
8 | HCC-827 | 0.999 | 1.11 | 1.03 | 1.04 | 1.1 | 0.171 | 0.212 | 0.216 | 0.192 | 1.05 | 1.05 | – | 1.1 | 0.988 | 0.898 | 1.02 | – | 0.824 | 0.565 | 0.148
